Measurements: patent US10206394B2, “Herbicidal compounds” (Syngenta Participations AG, priority 2014, dated 2019)
Where two headings read alike, the source gives them in different places.

Columns and labels:
Experiment in all cases: Glasshouse assay for herbicidal activity (pre- and post-emergence), percentage phytotoxicity
Format in all cases: in vivo
[1] = tested on: Echinochloa crus-galli (ECHCG); conditions: Echinochloa crus-galli, Rate 250 g/ha, 100%=total damage, 0%=no damage
Protocol: (§1) Test—Glasshouse Assay for Herbicidal Activity
(§2) Seeds of a variety of monocotyledonous and dicotyledonous test plants are sown in standard soil in pots. The plants are cultivated for one day (for pre-emergence (PRE)) or for about 12 days (for post-emergence (POST)) under controlled conditions in a glasshouse (warm climate species at 24/18° C., cool climate species at 20/16° C., both at day/night; 16 hours light; 65% humidity).
(§3) The test plants are then grown on, in a glasshouse (greenhouse) under controlled conditions (warm climate species at 24/18° C., cool climate species at 20/16° C., both at day/night; 16 hours light; 65% humidity) and are watered twice daily. 15 days after application of the test herbicide (15 DAA) (for post-emergence), and 20 days after application of the test herbicide (20 DAA) (for pre-emergence), the test plants are evaluated visually, and an assessed percentage phytotoxicity score is given for each herbicidal application on each plant species (with 100%=total damage to plant; 0%=no damage to plant).
(§4) The plant species tested are as follows: Alopecurus myosuroides (ALOMY), Avena fatua (AVEFA), Lolium perenne (LOLPE), Echinochloa crus-galli (ECHCG).

Avena fatua (AVEFA) = conditions: Avena fatua, Rate 250 g/ha, 100%=total damage, 0%=no damage
Protocol: as §1, §2, §3, §4

Lolium perenne (LOLPE) = conditions: Lolium perenne, Rate 250 g/ha, 100%=total damage, 0%=no damage
Protocol: as §1, §2, §3, §4

[2] = tested on: Alopecurus myosuroides (ALOMY); conditions: Alopecurus myosuroides, Rate 250 g/ha, 100%=total damage, 0%=no damage
Protocol: as §1, §2, §3, §4

[3] = post-emergence, 360 h, post-emergence, assessed visually 15 DAA, read-out: Post-emergence herbicidal activity (percentage phytotoxicity) ECHCG POST
[4] = pre-emergence, 480 h, pre-emergence, assessed visually 20 DAA, read-out: Pre-emergence herbicidal activity (percentage phytotoxicity) ECHCG PRE
[5] = post-emergence, 360 h, post-emergence, assessed visually 15 DAA, read-out: Post-emergence herbicidal activity (percentage phytotoxicity) AVEFA POST
[6] = pre-emergence, 480 h, pre-emergence, assessed visually 20 DAA, read-out: Pre-emergence herbicidal activity (percentage phytotoxicity) AVEFA PRE
[7] = post-emergence, 360 h, post-emergence, assessed visually 15 DAA, read-out: Post-emergence herbicidal activity (percentage phytotoxicity) LOLPE POST
[8] = pre-emergence, 480 h, pre-emergence, assessed visually 20 DAA, read-out: Pre-emergence herbicidal activity (percentage phytotoxicity) LOLPE PRE
[9] = post-emergence, 360 h, post-emergence, assessed visually 15 DAA, read-out: Post-emergence herbicidal activity (percentage phytotoxicity) ALOMY POST
[10] = pre-emergence, 480 h, pre-emergence, assessed visually 20 DAA, read-out: Pre-emergence herbicidal activity (percentage phytotoxicity) ALOMY PRE

SMILES | pest or weed control at 250 g/ha [1, 3] [%] | pest or weed control at 250 g/ha [1, 4] [%] | pest or weed control at 250 g/ha (Avena fatua (AVEFA); [5]) [%] | pest or weed control at 250 g/ha (Avena fatua (AVEFA); [6]) [%] | pest or weed control at 250 g/ha (Lolium perenne (LOLPE); [7]) [%] | pest or weed control at 250 g/ha (Lolium perenne (LOLPE); [8]) [%] | pest or weed control at 250 g/ha [2, 9] [%] | pest or weed control at 250 g/ha [2, 10] [%]
CC#Cc1cc(C)c(C2C(=O)CC(CC(=O)NC(C)C)C2=O)c(CC)c1 (stereo not shown) [Compound A54] | 100 | 100 | 100 | 100 | 100 | 100 | 100 | 100
CC#Cc1cc(C)c(C2C(=O)CC(CC(=O)NCc3ccsc3)C2=O)c(C)c1 (stereo not shown) [Compound A55] | 100 | 100 | 100 | 80 | 90 | 90 | 90 | 90
C=CCCNC(=O)CC1CC(=O)C(c2c(C)cc(C#CC)cc2C)C1=O (stereo not shown) [Compound A57] | 100 | 100 | 100 | 90 | 100 | 100 | 100 | 100
CC#Cc1cc(C)c(C2C(=O)CC(CC(=O)NCCC(F)(F)F)C2=O)c(C)c1 (stereo not shown) [Compound A58] | 100 | 100 | 100 | 100 | 90 | 90 | 100 | 100
CC#Cc1cc(C)c(C2C(=O)CC(CC(=O)NC(C)(C)CC)C2=O)c(C)c1 (stereo not shown) [Compound A60] | 100 | 100 | 100 | 100 | 90 | 100 | 100 | 100
CC#Cc1cc(C)c(C2C(=O)CC(CC(=O)N(C)CCC)C2=O)c(C)c1 (stereo not shown) [Compound A61] | 100 | 100 | 100 | 90 | 90 | 100 | 100 | 100
CC#Cc1cc(C)c(C2C(=O)CC(CC(=O)NC3CCCC3)C2=O)c(C)c1 (stereo not shown) [Compound A62] | 100 | 100 | 90 | 90 | 60 | 100 | 90 | 100
CC#Cc1cc(C)c(C2C(=O)CC(CC(=O)NCC3CC3)C2=O)c(C)c1 (stereo not shown) [Compound A63] | 100 | 100 | 100 | 90 | 90 | 100 | 100 | 100
C=CCOCC(C)(C)NC(=O)CC1CC(=O)C(c2c(C)cc(C#CC)cc2C)C1=O (stereo not shown) [Compound A64] | 100 | 100 | 90 | 70 | 70 | 80 | 90 | 70
CC#Cc1cc(C)c(C2C(=O)CC(CC(=O)NCC(C)(C)C)C2=O)c(C)c1 (stereo not shown) [Compound A65] | 100 | 100 | 90 | 70 | 80 | 90 | 90 | 100
CC#Cc1cc(C)c(C2C(=O)CC(CC(=O)NC3CC3)C2=O)c(CC)c1 (stereo not shown) [Compound A66] | 100 | 100 | 100 | 100 | 100 | 100 | 90 | 100
C#CCNC(=O)CC1CC(=O)C(c2c(C)cc(C#CC)cc2CC)C1=O (stereo not shown) [Compound A68] | 100 | 100 | 100 | 100 | 100 | 100 | 90 | 70
C#CCNC(=O)CC1CC(=O)C(c2c(C)cc(-c3ncc(Cl)cc3F)cc2C)C1=O (stereo not shown) [Compound A69] | 100 | 100 | 100 | 100 | 100 | 100 | 100 | 100
Cc1cc(-n2cc(Cl)cn2)cc(C)c1C1C(=O)CC(CC(=O)NCc2ccccn2)C1=O (stereo not shown) [Compound A71] | 100 | 90 | 90 | 80 | 70 | 60 | 100 | 80
Cc1cc(-n2cc(Cl)cn2)cc(C)c1C1C(=O)CC(CC(=O)NCC(C)C)C1=O (stereo not shown) [Compound A72] | 90 | 100 | 90 | 90 | 80 | 90 | 90 | 90
Cc1cc(-n2cc(Cl)cn2)cc(C)c1C1C(=O)CC(CC(=O)NC(C)C)C1=O (stereo not shown) [Compound A74] | 100 | 100 | 100 | 90 | 90 | 90 | 100 | 100
Cc1cc(-n2cc(Cl)cn2)cc(C)c1C1C(=O)CC(CC(=O)NC2CC2)C1=O (stereo not shown) [Compound A75] | 100 | 100 | 100 | 90 | 90 | 90 | 100 | 100
C=CCCNC(=O)CC1CC(=O)C(c2c(C)cc(-n3cc(Cl)cn3)cc2C)C1=O (stereo not shown) [Compound A76] | 100 | 100 | 90 | 90 | 80 | 90 | 100 | 90
COCCNC(=O)CC1CC(=O)C(c2c(C)cc(-n3cc(Cl)cn3)cc2C)C1=O (stereo not shown) [Compound A77] | 100 | 100 | 90 | 80 | 80 | 80 | 90 | 80
CC#Cc1cc(C)c(C2C(=O)CC(CC(=O)NCC#N)C2=O)c(C)c1 (stereo not shown) [Compound A78] | 100 | 60 | 40 | 30 | 30 | 20 | 80 | 10
